According to PMC3808539, “CtpB Assembles a Gated Protease Tunnel Regulating Cell-Cell Signaling during Spore Formation in Bacillus subtilis” (Cell, 2013):
Ends that are not written are not given here.

Tests used:
CtpB = assay: Degradation of in vitro translated 4FAproc constructs with distinct C termini by CtpB; format: biochemical, Bacillus subtilis; settings: autoradiography
Description: 4FAproc with alternative C-termini was produced using the promega TNT Quick Coupled Transcription/Translation System, following manufactures instructions. Briefly, 40 μl of TNT Master Mix were added to 0.5 μg of template plasmid DNA and 20 μCi of ^35S-methionine (Perkinelmer). The coupled transcription-translation reaction was carried out upon incubation at 30°C for 2 hr. Relative product amounts were normalized based on ^35S-autoradiography following SDS-PAGE analysis.
To measure the proteolytic activities of the SpoIV signaling proteases, recombinant, purified proteases (CtpB, 4B or both, 3 μM) were mixed with respective 4FA model substrates (15 μM) and incubated for various times at 25°C. Reactions were stopped by adding SDS loading buffer. Subsequently, samples were incubated for 5 min at 95°C and analyzed by SDS-PAGE and Coomassie staining. […] Reaction aliquots were stopped and analyzed as described. To compare the cleavage efficiency of various CtpB mutants, the amount of 4FAproc substrate was quantified by analyzing the stained gels using the software ImageJ ([Schneider et al., 2012]). […] Reactions were analyzed by SDS–PAGE and immunoblotting using anti-GFP antibodies ([Rudner and Losick, 2002]). […] The cleavage assays were carried out as described and analyzed by SDS-PAGE and ^35S-autoradiography using Amercham Hyperfilm™ MP films.

[1] = biological target: T1, isolated PDZ domain of CtpB (Bacillus subtilis, UniProt O35002); assay: Isothermal titration calorimetry, isolated PDZ domain; format: binding
T1 construct: His tag; made in house; host or cells: E. coli BL21(DE3)pLysS
Description: (§1) Figure S4 Peptide-Binding Properties of the PDZ Domain, Related to Figure 4 (A) The C termini of B. subtilis proteins predicted to reside in the intermembrane space were synthesized on a cellulose membrane according to the method of inverted peptides. Spotted membranes were probed with either the PDZ domain of CtpB (left) or the ΔPDZ mutant (right). (B) Identified strong binding peptides were further analyzed by systematically substituting residues critical for binding to the PDZ domain of CtpB. (C) ITC analysis testing the interaction of the indicated peptides with the isolated PDZ domain and full-length CtpB (S309A). Raw data (top) and binding isotherm derived from the integrated heat (bottom) are shown. The determined KD dissociation constants are indicated below the binding curves. […] The final model is overlaid with the omit 2Fo-Fc electron density (1.9 Å resolution, contoured at 1.2 σ) calculated without peptide ligand and Arg168.
(§2) Thermodynamic values characterizing the interaction between CtpB and peptide ligands were determined by ITC (MCS-ITC; Microcal). […]
(§3) The interaction between CtpB (wild-type; mutant forms or isolated PDZ domain) and peptide ligands was characterized by ITC measurements (MCS-ITC; Microcal). […] Resulting data were analyzed with the MicroCal ORIGIN software, following the instructions of the manufacturer. […]

full-length CtpB (S309A) = biological target: T2, full-length CtpB (S309A) (Bacillus subtilis, UniProt O35002, S309A); assay: Isothermal titration calorimetry, full-length CtpB (S309A); format: binding
T2 construct: the isolated PDZ domain and full-length CtpB (S309A); His tag; made in house; host or cells: E. coli BL21(DE3)pLysS
Description: as §1, §2, §3

CtpB R168A = biological target: T3, CtpB R168A (Bacillus subtilis, UniProt O35002, R168A); assay: Isothermal titration calorimetry, full-length CtpB R168A; format: binding
T3 construct: with the full-length CtpB variants R168A, R168F and V118Y; His tag; made in house; host or cells: E. coli BL21(DE3)pLysS
Description: (§4) Figure S5 Peptide Binding to the PDZ Domain Stabilizes the Active Protease State of CtpB, Related to Figure 5 (A) The interfaces of the PDZ domain with the other domains of CtpB were analyzed to evaluate the prevailing conformation of CtpB in solution. The ribbon representations of CtpBi (left) and CtpBa1 (right) emphasize the PDZ domain that is shown in yellow. Interactions stabilizing the respective domain interfaces (summarized in top panel) are highlighted in orange and the residues forming hydrogen-bonds are listed. […] (B) ITC analysis characterizing the interaction of a peptide having an Ala-Tyr-Ala C terminus with the full-length CtpB variants R168A, R168F and V118Y. Raw data (top) and binding isotherm derived from the integrated heat (bottom) are shown. The determined KD dissociation constants are indicated below the binding curves. (C) Left: a ribbon model of the CtpB V118Y mutant structure, which was crystallized in the same resting conformation as CtpBi. […]
as §2, §3

CtpB R168F = biological target: T4, CtpB R168F (Bacillus subtilis, UniProt O35002, R168F); assay: Isothermal titration calorimetry, full-length CtpB R168F; format: binding
T4 construct: with the full-length CtpB variants R168A, R168F and V118Y; His tag; made in house; host or cells: E. coli BL21(DE3)pLysS
Description: as §4, §2, §3

CtpB S309A mutant = assay: Cocrystallization of CtpB S309A with peptide; format: binding, Bacillus subtilis; settings: S309A/VPA complex, 1.9 Å, 20 mg/ml CtpB incubated with 1 mM peptide for 1 hr at 19°C
Description: CtpB crystals were grown at 19°C by the sitting-drop vapor-diffusion method using a 2:1 mixture of protein (20 mg/ml) and reservoir solution. […] Finally, diffraction data of CtpBi/VPA was collected at Deutsches Elektronen-Synchrotron (DESY, beamline P14) using a Pilatus detector (Dectris). Integration and scaling of diffraction data were performed with the programs DENZO, and [sequence]
For all other structures, phases were determined by molecular replacement using the program PHASER ([McCoy et al., 2007]) and the structure of CtpBa1 as search model. In all cases, energy restrained refinement was performed with the programs CNS ([Brünger et al., 1998]) and PHENIX ([Adams et al., 2010]), utilizing bulk solvent and anisotropic B-factor corrections depending on the development of the Rfree index. Refinement was performed in multiple cycles, interrupted for manual model re-building with the program O ([Jones et al., 1991]). Final models were verified with the program MolProbity ([Chen et al., 2010]) and crystal contacts analyzed using the PISA algorithm implemented on the Protein Data Bank Europe website ([Krissinel and Henrick, 2007]).

PDZ domain of CtpB = assay: Peptide spot assay; format: binding, Bacillus subtilis; settings: inverted peptide array on cellulose membrane; CtpB variants 10 μg/ml, overnight 4°C; anti-polyHis chemiluminescence
Description: Peptide spot libraries were generated by synthesizing the 11 C-terminal residues of 1,849 B. subtilis proteins predicted to reside in the intermembrane space onto a cellulose membrane. Membranes were blocked for 4 hr with blocking buffer (blocking reagent, Sigma-Genosys) and subsequently incubated with CtpB. Bound protein was identified using specific antibodies. Further libraries were generated, where identified peptide sequences were systematically permutated.
Peptide spot libraries were generated by synthesizing the 11 C-terminal residues of 1849 B. subtilis proteins known to reside in the intermembrane space. Peptide libraries were generated by a MultiPep SPOTrobot (INTAVIS Bioanalytical Instruments AG) using an optimized method for generating inverted peptides ([Boisguerin et al., 2007], [Volkmer, 2009]). […] Bound CtpB was detected using a mouse anti-polyHis antibody (Sigma, 1:3,000 in blocking buffer, 2 hr at RT) followed by horseradish-peroxidase conjugated anti-mouse antibody (Calbiochem, 1:2,000 in blocking buffer, 1 hr at RT). […] The signal intensities with background-subtraction were recorded as […] with a LumiImager (Boehringer) and analyzed using the LumiAnalyst software. Secondary libraries for subtitutional analyses were generated by systematically permutating identified peptides and analyzed by the described peptide spot methodology.

T1 sequence (O35002 92-182): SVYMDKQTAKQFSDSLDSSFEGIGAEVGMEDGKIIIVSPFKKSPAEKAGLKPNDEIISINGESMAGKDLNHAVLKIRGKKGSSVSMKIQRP
T2 sequence (O35002 24-480 S309A): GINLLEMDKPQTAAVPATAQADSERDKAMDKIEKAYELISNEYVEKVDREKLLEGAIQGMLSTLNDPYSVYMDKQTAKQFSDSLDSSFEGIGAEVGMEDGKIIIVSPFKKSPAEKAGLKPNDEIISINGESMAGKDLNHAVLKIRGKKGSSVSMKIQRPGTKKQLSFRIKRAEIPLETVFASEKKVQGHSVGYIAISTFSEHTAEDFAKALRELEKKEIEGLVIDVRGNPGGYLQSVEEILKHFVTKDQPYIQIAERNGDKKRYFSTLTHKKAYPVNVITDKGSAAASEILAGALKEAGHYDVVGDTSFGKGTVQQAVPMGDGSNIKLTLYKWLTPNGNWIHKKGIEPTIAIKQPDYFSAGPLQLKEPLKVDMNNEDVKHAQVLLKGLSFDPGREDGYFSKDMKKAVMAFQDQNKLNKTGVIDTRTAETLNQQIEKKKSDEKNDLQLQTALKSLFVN
T4 sequence (O35002 24-480 R168F): as the sequence (O35002 24-480 S309A) above, with R145F, A286S counted along it
T3 sequence (O35002 24-480 R168A): as the sequence (O35002 24-480 S309A) above, with R145A, A286S counted along it

Substance: Ala-Pro-Ala
- degradation by CtpB (in words) (CtpB; 0.3 μM wild-type CtpB, in vitro translated 35S-methionine-labeled 4FAproc constructs): rapidly degraded
- efficiency in stimulating protease function (CtpB; 4FAproc constructs applied at decreasing concentrations, 0.3 μM CtpB): less efficient in stimulating protease function than the Ala-Tyr-Val motif, especially at lower concentrations

Substance: FMLLRRKAYA
- Kd [1]: 2.3 µM
- Kd (full-length CtpB (S309A)): 6.5 µM
- Kd (CtpB R168A): 21 µM
- Kd (CtpB R168F): 40 µM

Substance: FMLLRRKAYV
- Kd [1]: 0.9 µM

Substance: H-EMDKPQTAAVPA-OH [oligopeptide having a Val-Pro-Ala C terminus, cocrystallized with S309A]
- conformation of S309A cocrystallized with peptide (CtpB S309A mutant): active conformation
- conformation of S309A cocrystallized with peptide (CtpB S309A mutant; listed as oligopeptide having a Val-Pro-Ala C terminus): peptide binding itself is sufficient to transform the resting protease into the active conformation

Substance: H-NLVLAGLHSYA-OH
- binding to PDZ domain in peptide spot analysis (PDZ domain of CtpB): identified PDZ binder
